Data on three sequences can be found in patent publication US8652439B2, “Compositions of HSP60 peptides and viral antigens for vaccination and diagnosis” (priority 2005, dated 2014).

The test system of test [1] is splenocytes. Nature of the test: Proliferation of splenocytes from mice immunized with p15 conjugates, stimulated in vitro with p15. The conditions noted are these: spleens 10 days after immunization; p15 25 μg/ml, 3 days. It counts as in vivo. The protocol: (§1) Mice were immunized with the following peptides as described in Example 8 using the following peptides: p15 (SEQ ID NO:11), p32 (SEQ ID NO:13), Ec27-p15 ([…], SEQ ID NO:77), and Mock-p15 ([…], SEQ ID NO:80—the p431 peptide fused to p15).
(§2) Spleens were harvested 10 days after the immunization and splenocytes were cultured with p15 (25 μg/ml) for 3 days. Cell proliferation and IFNγ levels in the supernatants of spleen cell cultures were measured. Results are the average of 3 independent proliferation experiments. Ec27-Ep15* and Ec27-Ep15** are two identical but independent groups in the same experiment.

Test [2] relates to BALB/c lymph node cells. Description: Proliferative response of lymph node cells to overlapping GroEL peptides after immunization with E. coli bacteria or GroEL. It counts as cell-based, BALB/c mice. The conditions noted are these: mice immunized with E. coli bacteria or GroEL; peptides 20 μg/ml.
Test [3] concerns lymph node cells. Nature of the test: Proliferative response of lymph node cells after immunization with the Ec27 peptide. It counts as in vivo, mice.
For test [4], the system named is IFN-γ. Description: IFN-γ secretion of splenocytes from mice immunized with p15 conjugates, stimulated in vitro with p15. The class given is in vivo. The conditions noted are these: spleens 10 days after immunization; p15 25 μg/ml, 3 days. The protocol:
as §1, §2

The test system of test [5] is WNV. Nature of the test: Protective efficacy of immunization against WNV challenge (mortality). The conditions noted are these: for Mortality (% deaths) / Mortality (dead of total): 3 immunizations, 10^6 pfu WNV, 21 days post challenge, 5 experiments; for Protective efficacy against WNV challenge: summary of 5 experiments. The class given is in vivo, BALB/c mice.
Test [6] relates to serum from WNV-infected mice. Nature of the test: ELISA recognition of peptides by serum from WNV-infected mice. The class given is binding. The conditions noted are these: peptide 1 μg/well; sera 1:40 dilution. The protocol:
(§3) ELISA tests were performed according to the method described by Martin et al (Martin et al, 2000) with slight modifications. Briefly, microtiter plates were coated and incubated overnight at 4° C. with 100 μl of the different peptides (1 μg/well) or WNV antigen diluted 1:700 in coating buffer (NaHCO3, pH=9.6). After incubation, the coating buffer was decanted and the plates were washed twice in PBS containing 0.05% Tween 20 and 0.2% sodium azide (washing buffer). After blocking for 1 h with a 200 μl/wen of PBS containing 0.05% Tween 20 and 2.5% nonfat dry milk, the plates were washed 4 times in washing buffer and 100 μl of IVIG-IL or mouse sera at 1:40 dilution were added to each well (2-4 wells per sample). Negative and positive controls of human or mouse sera were tested in each plate. […] The color intensity was measured by ELISA-reader (Dynatec MR 5000) at the absorbance of 405 nm.
(§4) Next, it was examined whether the candidate epitope is recognized by a serum immunoglobulin pool taken from Israeli donors (IVIG-IL), which contains anti-WNV Abs. […] After blocking and washing, IVIG-IL was added at 1:40 dilution and binding was detected. […]
In general terms: In an ELISA, binding on a coated surface is turned into a signal by an enzyme label.

The test system of test [7] is sera from WNV-exposed human subjects. Description: ELISA recognition of WNV peptides by human sera. The class given is binding. How it is done:
Sera from WNV-exposed and non-exposed human subjects was assayed for antibodies recognizing the novel WNV peptide antigens, p15 (SEQ ID NO:11) and p17 (SEQ ID NO:21). FIG. 17 presents the results of an ELISA test in which the p15 and p17 served as the antigen, human sera were used as the primary antibody and HRP-conjugated anti-human Abs were used as the secondary antibody. RLU are the relative luminescence units produced by HRP activity on the luminal substrate.
Sera S2 and S6 are from human that were not infected with WNV while sera S1, S3-S5 and S7 are from human that had history of WNV infection.

Test [8] deals with IVIG-IL (anti-WNV Abs). Nature of the test: ELISA recognition of peptides by IVIG-IL. The conditions noted are these: peptide 1 μg/well; IVIG-IL 1:40 dilution. The class given is binding, human. How it is done:
as §3, §4

Test [9] has as its system WNV-Ag. Nature of the test: ELISA of anti-WNV Abs in sera of immunized mice. It counts as in vivo. The conditions noted are these: 7 days after 3rd immunization; sera 1:40. The protocol:
FIG. 11. Anti-WNV Abs in the sera of mice immunized with different peptides or with WNV Ag. (A) Mice were immunized 3 times with the different peptides or WNV-Ag at 7 day intervals. Seven days after the 3rd immunization mice were bled and sera were tested as follows. Wells were coated with WNV-Ag (1:700 dilution). After blocking and washing, the different sera were added at 1:40 dilution and binding was detected as described in methods (ELISA). Results are the average of 4 independent ELISA experiments. Bars, ±SD. (B) Isotypes of Anti-WNV antibodies.
as §3, with “sample).” for “sample). Negative and positive controls of human or mouse sera were tested in each plate.”, “nm. […]” for “nm.”

In test [10] the test system is WNV-Ag. Description: Isotypes of anti-WNV antibodies (ELISA). The class given is in vivo, mice. How it is done: Plates were coated with the WNV-Ag diluted 1:700 in coating buffer. After overnight incubation at 4° C., blocking and washing, various dilutions of mouse sera were added in triplicates. Negative and positive controls of mouse sera were tested in each plate. Total IgG assessment was performed using HRP-Streptavidin-conjugated anti-mouse IgG (SouthernBiotech). For antibody isotype identification, incubation with biotin-conjugated anti-mouse IgG1, IgG2a, IgG2b, IgG3, IgA and IgM antibodies (PharMingen, San Diego, Calif.) was followed by incubation with 1:1000 diluted HRP-Streptavidin (Jackson Laboratories, West Grove, Pa.). After substrate addition the color intensity was measured by ELISA-reader at 405 nm.
Next, it was examined whether p32 immunization and sublethal infection with WNV induce similar isotypes of anti-WNV antibodies. WNV-Ag was used as the antigen in the ELISA plates.

Test [11] relates to WNV. Nature of the test: Virus levels in brain after p32 immunization and WNV challenge (RT-PCR and plaque assay). The class given is in vivo, mice. The conditions noted are these: day 7 after challenge with 10^6 pfu WNV; immunized 3 times.
Test [12] relates to splenocytes. Description: Proliferation of splenocytes from p32-immunized mice after in vitro stimulation. It counts as in vivo. The conditions noted are these: in vitro stimulation with WNV antigen.
In test [13] the test system is IFNγ. Description: IFNγ secretion of splenocytes from p32-vaccinated mice. The class given is in vivo. The conditions noted are these: in vitro stimulation with WNV antigen.
The subject of test [14] is splenocytes from WNV-infected mice. Description: Proliferation of splenocytes from WNV-infected mice after in vitro stimulation with peptides. It counts as cell-based. The conditions noted are these: in vitro stimulation with peptide.
Where [15] appears, read: sera of p32-immunized versus WNV-infected mice.

On to KKARVEDALHATRAAVEEGV [Ec27], for which, in test [1], the “Proliferation of spleen cells in the presence of p15” value was “did not induce significant proliferation”. For the same sequence, the “Proliferative response of draining LNC to GroEL peptide” value in test [2] is “highly immunogenic”. Moreover, the “Proliferative response of lymph node cells of Ec27-immunized BALB/c mice” value in test [3] (20 μg Ec27 in IFA s.c., 10 days later) was “responded the Ec27 peptide and to the whole GroEL molecule, but not to the control peptide AcR 259-271”. In addition, in test [3] (BALB/c, BALB/k, BALB/b, SJL), the “Proliferative response of mouse strains with different MHC haplotypes” value is reported as “all four different mouse strains responded specifically”. Moreover, in test [4], the “IFN-γ secretion of spleen cells in the presence of p15” value is “did not induce significant proliferation and IFN-γ secretion”.

As to LVTVNPFVSVATANS [p15], in test [5], the “Mortality (% deaths)” value is “(53%)”, the “Mortality (dead of total)” value is listed as 8/15 and the “Protective efficacy against WNV challenge” value is reported as “slight protective efficacy”. Also, the “Recognition by serum from WNV-infected mice” value in [6] is listed as “specifically recognized”. Moreover, the “Recognition by sera of WNV-exposed and unexposed human subjects” value in [7] (ELISA, peptide as antigen) is “specifically recognized by WNV-exposed sera and not by sera from unexposed subjects”. In addition, the “Recognition by sera from Dengue-infected humans” value in test [7] (data not shown) is reported as “did not recognize”. Besides, the “Recognition by IVIG-IL” value in test [8] was “recognized by IVIG-IL”.

With NEDQKIGIEIIKRALKILVTVNPFVSVATANS [p32], the “WNV-specific Abs in sera” value in [9] is “high titer of WNV-specific Abs as compared to immunization with p15 alone”. Besides, in [5], the “Mortality (% deaths)” value is given as “(10%)”, the “Mortality (dead of total)” value is 2/21 and the “Protective efficacy against WNV challenge” value is given as “a high degree of protection”. For the same sequence, the “WNV-specific IgA and IgG3” value in test [10] (sera of p32-immunized and WNV-infected mice) is reported as “Neither IgA nor IgG3 specific for WNV were detected”. Further, in test [10] (setting [15]), the “Anti-WNV IgG1 and IgG2a levels” value was “similarly high”; the “WNV-specific IgG2b levels” value is on record as “higher in sera from WNV-infected mice”; the “WNV-specific IgM levels” value is listed as “higher in p32-immunized mice”. Moreover, in test [11], the “Virus levels in the brain” value is on record as “no virus was detected”. Moreover, in test [12], the “Proliferation of splenocytes from immunized mice” value is listed as “proliferated in response to in vitro stimulation with WNV antigen”. For the same sequence, in test [13], the “IFNγ secretion of splenocytes from immunized mice” value is “secretion of high levels of IFNγ”. For the same sequence, in test [14], the “Proliferation of T cells from WNV-infected mice” value was “proliferated in response to in vitro stimulation”.
